Legend:
J82 = experiment: MTT test, J82; assay type: cell-based; settings: Homo sapiens, 10^−5 M, 72 hours, control = 100%, mean ± SEM, read-out: average optical density (MTT), percentage relative to control
Protocol: (§1) The influence of the compounds of formulae (I) and (Ia) on non-clonogenic cells was evaluated with the aid of the MTT calorimetric test.
(§2) The principle of the MTT test is based on the mitochondrial reduction, by the metabolically active live cells, of the yellow-colored product MTT (3-(4,5-dimethylthiazol-2-yl)-2,5-diphenyltetrazolium bromide) to a blue-colored product, formazan. The amount of formazan thus obtained is directly proportional to the amount of live cells present in the culture well(s). This amount of formazan is measured by spectrophotometry.
(§3) The cell lines are maintained as a monolayer culture at 37° C. in stoppered culture dishes containing MEM 25 MM HEPES (Minimum Essential Medium) base medium. This medium is suited to the growth of a range of various mammalian diploid or primary cells. This medium is then supplemented with:
(§4) an amount of 5% of FCS (Foetal Calf Serum) decomplemented at 56° C. for 1 hour,
(§5) 0.6 mg/ml of L-glutamine,
(§6) 200 μg/ml of streptomycin,
(§7) The 12 human cancer cell lines which were used were obtained from the American Type Culture Collection (ATCC, Rockville, Md., USA). These 12 cell lines are:
(§8) J82 (code ATCC: HTB-1) and T24 (code ATCC: HTB-4) which are two bladder cancers,
(§9) Experimentally: 100 μl of a cell suspension containing 20 000 to 50 000 (depending on the cell type used) cells/ml of culture medium are inoculated in 96-well flat-bottomed multi-well plates and are incubated at 37° C., under an atmosphere comprising 5% CO2 and 70% humidity. After incubation for 24 hours, the culture medium is replaced with 100 μl of fresh medium containing either the various test compounds at concentrations ranging from 10^−5 to 10^−10 M or the solvent used to dissolve the test products (control condition). After incubation for 72 hours under the above conditions, the culture medium is replaced with 100 μl of a yellowish solution of MTT dissolved at a rate of 1 mg/ml in RPMI 1640. The microplates are reincubated for 3 hours at 37° C. and are then centrifuged for 10 minutes at 400×g. The yellowish solution of MTT is removed and the blue formazan crystals formed in the cell are dissolved in 100 μl of DMSO. The microplates are then shaken for 5 minutes. The intensity of the resulting blue coloration, and thus of the conversion of the yellow product MTT into blue formazan by the cells that are still alive at the end of the experiment, is quantified by spectrophotometry using a Dynatech Immunoassay System machine at wavelengths of 570 nm and 630 nm corresponding, respectively, to the maximum absorption wavelengths of formazan and to the background noise. Software incorporated in the spectrophotometer calculates the average optical density values and the standard deviation (SD) and standard error of mean (SEM) values.
(§10) By way of example, the results of the average optical density, expressed as a percentage relative to the average optical density measured under the control condition (set equal to 100%), obtained at a concentration of 10^−5 M on the 12 abovementioned tumor cell lines are given in Table II.

A549 = experiment: MTT test, A549; assay type: cell-based; settings: Homo sapiens, 10^−5 M, 72 hours, control = 100%, mean ± SEM, read-out: average optical density (MTT), percentage relative to control
Protocol: as §1, §2, §3, §4, §5, §6, §7
(§11) A549 (code ATCC: CCL-185) and A-427 (code ATCC: HTB-53) which are two non-small-cell lung cancers,
as §9, §10

[1] = Determination of the maximum tolerated dose (MTD); settings: mouse, in vivo, ip; B6D2F1/Jico mice; single intraperitoneal administration, 2.5 to 160 mg/kg; survival over 14 days
Protocol: 3.—Determination of the Maximum Tolerated Dose (MTD):
The evaluation of the maximum tolerated dose was carried out on 4- to 6-week-old B6D2F1/Jico mice. The compounds were administered intraperitoneally at increasing doses graduating from 2.5 to 160 mg/kg. The value of the MTD (expressed in mg/kg) is determined from the observation of the survival rate of the animals over a 14-day period after a single administration of the product under consideration. The weight change of the animals is also monitored during this period. When the value of the MTD is greater than 160 mg/kg, the MTD value is likened to 160 mg/kg by default.
The results of the estimation of the maximum tolerated dose (MTD) are collated in the following table: […]

PC-3 = experiment: MTT test, PC-3; assay type: cell-based; settings: Homo sapiens, 10^−5 M, 72 hours, control = 100%, mean ± SEM, read-out: average optical density (MTT), percentage relative to control
Protocol: as §1, §2, §3, §4, §5, §6, §7
PC-3 (code ATCC: CRL-1435) which is a prostate cancer.
as §9, §10

U-87MG = experiment: MTT test, U-87MG; assay type: cell-based; settings: Homo sapiens, 10^−5 M, 72 hours, control = 100%, mean ± SEM, read-out: average optical density (MTT), percentage relative to control
Protocol: as §1, §2, §3, §4, §5, §6, §7
(§12) U-373MG (code ATCC: HTB-17) and U-87MG (code ATCC: HTB-14) which are two glioblastomas,
as §9, §10

HCT-15 = experiment: MTT test, HCT-15; assay type: cell-based; settings: Homo sapiens, 10^−5 M, 72 hours, control = 100%, mean ± SEM, read-out: average optical density (MTT), percentage relative to control
Protocol: as §1, §2, §3, §4, §5, §6, §7
(§13) HTC-15 (code ATCC: CCL-225) and LoVo (code ATCC: CCL-229) which are two colorectal cancers,
as §9, §10

LoVo = experiment: MTT test, LoVo; assay type: cell-based; settings: Homo sapiens, 10^−5 M, 72 hours, control = 100%, mean ± SEM, read-out: average optical density (MTT), percentage relative to control
Protocol: as §1, §2, §3, §4, §5, §6, §7, §13, §9, §10

A-427 = experiment: MTT test, A-427; assay type: cell-based; settings: Homo sapiens, 10^−5 M, 72 hours, control = 100%, mean ± SEM, read-out: average optical density (MTT), percentage relative to control
Protocol: as §1, §2, §3, §4, §5, §6, §7, §11, §9, §10

U-373MG = experiment: MTT test, U-373MG; assay type: cell-based; settings: Homo sapiens, U373 MG, 10^−5 M, 72 hours, control = 100%, mean ± SEM, read-out: average optical density (MTT), percentage relative to control
Protocol: as §1, §2, §3, §4, §5, §6, §7, §12, §9, §10

MCF7 = experiment: MTT test, MCF7; assay type: cell-based; settings: Homo sapiens, 10^−5 M, 72 hours, control = 100%, mean ± SEM, read-out: average optical density (MTT), percentage relative to control
Protocol: as §1, §2, §3, §4, §5, §6, §7
(§14) T-47D (code ATCC: HTB-133) and MCF7 (code ATCC: HTB-22) which are two breast cancers,
as §9, §10

T-47D = experiment: MTT test, T-47D; assay type: cell-based; settings: Homo sapiens, T47D, 10^−5 M, 72 hours, control = 100%, mean ± SEM, read-out: average optical density (MTT), percentage relative to control
Protocol: as §1, §2, §3, §4, §5, §6, §7, §14, §9, §10

T24 = experiment: MTT test, T24; assay type: cell-based; settings: Homo sapiens, T-24, 10^−5 M, 72 hours, control = 100%, mean ± SEM, read-out: average optical density (MTT), percentage relative to control
Protocol: as §1, §2, §3, §4, §5, §6, §7, §8, §9, §10

SW1088 = experiment: MTT test, SW1088; assay type: cell-based; settings: Homo sapiens, 10^−5 M, 72 hours, control = 100%, mean ± SEM, read-out: average optical density (MTT), percentage relative to control
Protocol: as §1, §2, §3, §4, §5, §6, §7
SW1088 (code ATCC: HTB-12) which is an astrocytoma,
as §9, §10

Row | SMILES | viability at 10 µM (J82) [%] | viability at 10 µM (A549) [%] | MTD at 14 day [1] [mg/kg] | viability at 10 µM (PC-3) [%] | viability at 10 µM (U-87MG) [%] | viability at 10 µM (HCT-15) [%] | viability at 10 µM (LoVo) [%] | viability at 10 µM (A-427) [%] | viability at 10 µM (U-373MG) [%] | viability at 10 µM (MCF7) [%] | viability at 10 µM (T-47D) [%] | viability at 10 µM (T24) [%] | viability at 10 µM (SW1088) [%] | melting point [°C]
1 | CCOC(=O)Cn1c(=O)c(-c2ccc(OC)cc2)cc2c(OC)cc(OC)cc21 [CRL8314] | 33.2 ± 1.2 | 85.2 ± 1.4 | > 160 | 88.6 ± 1.4 | 74.5 ± 3.4 | 116 ± 4.4 | 82.9 ± 2.5 | 104 ± 3.1 | 89.2 ± 2 | 72.2 ± 2 | 114 ± 2.3 | 61.9 ± 2.5 | 85.4 ± 2.5 | 
2 | COc1ccc(-c2cc3c(OC)cc(OC)cc3n(CC(=O)O)c2=O)cc1 [CRL8317, 2-[5,7-Dimethoxy-3-(4-methoxyphenyl)-2-oxo-1,2-dihydro-1-quinolinyl]acetic Acid] | 83.6 ± 1.8 | 94.7 ± 2.2 | > 160 | 97.9 ± 1.1 | 91 ± 4.1 | 104 ± 2.6 | 86.8 ± 2.8 | 91.3 ± 2 | 91.2 ± 1.9 | 96 ± 2.1 | 95 ± 2.5 | 91.4 ± 4.3 | 103 ± 2.3 | 
3 | COC(=O)CCn1c(=O)c(-c2ccc(OC)cc2)cc2c(OC)cc(OC)cc21 [CRL8318] | 72.8 ± 1.2 | 86.6 ± 2.5 | > 160 | 79.2 ± 2.8 | 78.1 ± 2.4 | 113 ± 1.7 | 75.2 ± 2.3 | 74 ± 3 | 89.9 ± 1.3 | 105 ± 2.4 | 100 ± 3.9 | 81.8 ± 1.4 | 75.2 ± 3 | 
4 | COc1ccc(-c2cc3c(OC)cc(OC)cc3n(CCC(=O)O)c2=O)cc1 [CRL8319, 3-[5,7-Dimethoxy-3-(4-methoxyphenyl)-2-oxo-1,2-dihydro-1-quinolinyl]propanoic Acid] | 80.9 ± 1 | 97.3 ± 1.2 | > 160 | 90.7 ± 3.6 | 115 ± 2.9 | 96.7 ± 1.6 | 79.7 ± 2.7 | 79.1 ± 2.5 | 102 ± 1.5 | 102 ± 2 | 104 ± 2.5 | 89.6 ± 2.1 | 89.8 ± 2.7 | 
5 | Cn1c(=O)c(-c2ccc(O)cc2)cc2c(O)cc(O)cc21 [CRL8321, 5,7-Dihydroxy-3-(4-hydroxyphenyl)-1-methyl-1,2-dihydro-2-quinolinone] | 88.6 ± 0.9 | 99.4 ± 1.3 | > 160 | 102 ± 3.1 | 96.5 ± 1.2 | 118 ± 1.6 | 108 ± 1.1 | 107 ± 1.4 | 97.1 ± 2.4 | 96.6 ± 0.9 | 91.5 ± 1.2 | 103 ± 1.7 | 97.2 ± 1.8 | 
6 | COc1cc(OC)c2cc(-c3ccccc3)c(O)nc2c1 [CRL8330, 5,7-Dimethoxy-3-phenyl-1,2-dihydro-2-quinolinone] | 70.5 ± 2.4 | 76.3 ± 2.4 | > 160 | 48.5 ± 2.1 | 86.6 ± 0.7 | 94.7 ± 2.1 | 59.9 ± 4.2 | 59.8 ± 1 | 75.5 ± 3.7 | 87.2 ± 3 | 77.6 ± 3 | 57.4 ± 2.3 | 73.3 ± 1.8 | 
7 | COc1ccc(-c2cc3c(OC)ccc(OC)c3nc2O)cc1 [CRL8336, 5,8-Dimethoxy-3-(4-methoxyphenyl)-1,2-dihydro-2-quinolinone] | 90.9 ± 0.9 | 114 ± 1.9 | > 160 | 91.7 ± 1.5 | 82.3 ± 1.8 | 93.1 ± 3.2 | 92.6 ± 3.4 | 87.9 ± 3.1 | 82.3 ± 1.6 | 73.9 ± 0.7 | 96.2 ± 2.9 | 88.2 ± 1.4 | 101 ± 4.3 | 
8 | COc1cccc2cc(-c3ccccc3)c(O)nc12 [CRL8339, 8-Methoxy-3-phenyl-1,2-dihydro-2-quinolinone] | 83.7 ± 0.6 | 49.6 ± 2.2 | > 160 | 84.3 ± 1.8 | 69.1 ± 2.1 | 65.5 ± 2.2 | 74.4 ± 1.8 | 52.3 ± 2.3 | 73.6 ± 1.8 | 82.7 ± 3.5 | 81 ± 2.8 | 87.4 ± 2 | 87.1 ± 2.6 | 
9 | COc1ccc(-c2cc3c(OC)cc(OC)cc3nc2OC)cc1 [Compound 7a, 2,5,7-Trimethoxy-3-(4-methoxyphenyl)quinoline] |  |  |  |  |  |  |  |  |  |  |  |  |  | 106 to 107
10 | CCOC(=O)COc1nc2cc(OC)cc(OC)c2cc1-c1ccc(OC)cc1 [Compound 11a, Ethyl 2-([5,7-Dimethoxy-3-(4-methoxyphenyl)-2-quinolinyl]oxy)acetate] |  |  |  |  |  |  |  |  |  |  |  |  |  | 95 to 96
11 | COc1ccc(-c2cc3c(OC)cc(OC)cc3nc2OCC(=O)OCc2ccccc2)cc1 [Compound 13a, Benzyl 2-([5,7-Dimethoxy-3-(4-methoxyphenyl)-2-quinolinyl]oxy)acetate] |  |  |  |  |  |  |  |  |  |  |  |  |  | 114 to 115
12 | CCN(CC)C(=O)COc1nc2cc(OC)cc(OC)c2cc1-c1ccc(OC)cc1 [Compound 18a, N,N-Diethyl-2-([5,7-dimethoxy-3-(4-methoxyphenyl)-2-quinolinyl]oxy)acetamide] |  |  |  |  |  |  |  |  |  |  |  |  |  | 146 to 147
13 | COc1ccc(-c2cc3c(OC)cc(OC)cc3nc2OCC#N)cc1 [Compound 19a, 2-([5,7-Dimethoxy-3-(4-methoxyphenyl)-2-quinolinyl]oxy)acetonitrile] |  |  |  |  |  |  |  |  |  |  |  |  |  | 149 to 150
14 | COc1ccc(-c2cc3c(OC)cc(OC)cc3nc2OCCCN(C)C)cc1 [Compound 22a] |  |  |  |  |  |  |  |  |  |  |  |  |  | 54 to 55
15 | COc1ccc(-c2cc3c(OC)cc(OC)cc3nc2OCCN(C)C)cc1 [Compound 23a, N,N-Dimethyl-2-[5,7-dimethoxy-3-(4-methoxyphenyl)-2-quinolyl]oxy-1-ethanamine] |  |  |  |  |  |  |  |  |  |  |  |  |  | 49 to 50
16 | COc1ccc2[nH]c(=O)c(-c3ccccc3)cc2c1 [Compound 44, 6-Methoxy-3-phenyl-1,2-dihydro-2-quinolinone] |  |  |  |  |  |  |  |  |  |  |  |  |  | 243 to 244
